Source: patent publication US20250136607A1 (REGOR PHARMACEUTICALS, INC., priority 2021, published 2025)
Like-named read-outs stand apart in the source and are kept apart here.

Columns and labels:
[1] = test system: Citrullinated Histone H3 in 4T1 (TNBC cell line) cells; experiment: 4T1 CECN ELISA assay; type: cell-based; settings: 4T1 cells, stimulation with 50 μM A23187 for 4 h, read-out: Average IC50 Abs
Description: Cell culture: 4T1 cells were grown in DMEM+10% FBS+1% HEPES+1% PS. Cells plating: • 1) 4T1 cells were collected and the plate was centrifuged at 1000 rpm for 5 min. • 2) The 4T1 cells were diluted to 0.5×10^6 cells/mL and plated into a 96-well plate with 100 μL/well. The plate was then incubated in the incubator (5% CO2, 37° C.) for overnight to allow cells to adhere, exchanged fresh culture medium with 100 μL/well. Compound treatment: • 1) Preparation of compound serial dilution (source plate 500×, final DMSO concentration: 0.2%): briefly, compounds were dissolved in 100% DMSO to a concentration of 20 mM (the stock solution) and a 3-fold serial dilution with 8-point doses was performed. • 2) 10× compound solution was pipetted up and down; and 10 μL/well of compounds were added into each well and incubated for 30 min. Stimulation with 50 μM A23187: • 1) A solution of A23187 (500 μM) in complete DMDM (DMDM+10% FBS+1% PS+1 mM CaCl2) containing 150 U/mL S7 Nuclease was prepared. The obtained solution was added 10 μL/well into each well and incubated for 4 h in the incubator (5% CO2, 37° C.). • 2) The 4T1 cells treated with 10 μL/well complete DMDM without A23187 worked as negative control. Sample preparation: • 1) EDTA (0.5 M, 2 μL/well) were added to all the wells to stop the reaction. • 2) The plate was centrifuged at 1000 rpm for 5 min to collect supernatant. • 3) The supernatant was then diluted at least 1:2 before adding to the ELISA plate for citrullinated H3 analysis.
The standard was reconstituted with 2 mL of Assay buffer to 500 ng/mL. The reconstituted standard was relatively unstable at 4° C. and should be used within 3 hr after reconstitution.
• 1) 100 μL of the standards or diluted samples were added to the wells on the ELISA plate. • 2) The plate was covered with Cover Sheet and incubated for 2 h at RT on an orbital shaker.
On the day of the assay, the reagent was thawed at rt. For one plate, 1.2 mL of HRP Conjugate were diluted into 10.8 mL of assay buffer. A diluted HRP Conjugate was prepared shortly before use.
• 1) The wells were empties and rinsed four times with 1× wash buffer with 300 μL/well (Low speed). The plate was inverted between wash steps to empty the plate. After the last wash, the inverted plate was gently tapped on absorbent paper to remove the residual wash buffer. • 2) 100 μL of the HRP Conjugate working solution were added to each well of the plate. • 3) The plate was covered with cover sheet and incubated for 1 h at RT on an orbital shaker.
• 1) The wells were empties and rinsed four times with 1× wash buffer with 300 μL/well (low speed). The plate was inverted between wash steps to empty the plate. […] 100 μL of HRP STOP solution were added to each well of the plate.
• 1) Wipe the bottom of the plate with a clean tissue to remove fingerprints, dirt, etc. • 2) Read the plate at a wavelength of 450 nm.
The percent (%) inhibition at each concentration of compound was calculated based on and relative to the signal in the HPE and ZPE wells contained within each assay plate. The HPE wells worked as […], and the ZPE wells didn't contain any compound but rather DMSO (final concentration=[…]) as […]. The concentrations and % inhibition values for tested compounds were plotted and the concentration of compound required for 50% inhibition (IC50) was determined with a Four-parameter logistic dose response equation. The endpoint value (IC50) for the reference peptide/compound was evaluated in each experiment as a quality control measure. If the endpoint value is within 3-fold of the expected value then the experiment is deemed acceptable. The results of representative compounds of the present invention are provided in Table 3 below. ≤0.1 μM=“++++”; >0.1 and ≤0.5 μM=“+++”; >0.5 and ≤5.0 μM=“++”; >5.0 μM=“+”. “−”=not available.

[2] = molecular target: Protein arginine deiminase 4 (PAD4) (Homo sapiens, UniProt Q9UM07); experiment: PAD4 ammonia release assay; type: biochemical; settings: for IC50: PAD4 ammonia release assay, BAEE substrate, 60 min at RT, read-out: Average IC50 Abs; for relative potency of separated isomers in the PAD4 biochemical assay: SFC-separated stereoisomer pairs
Chain of Protein arginine deiminase 4 (PAD4) (Q9UM07 whole entry): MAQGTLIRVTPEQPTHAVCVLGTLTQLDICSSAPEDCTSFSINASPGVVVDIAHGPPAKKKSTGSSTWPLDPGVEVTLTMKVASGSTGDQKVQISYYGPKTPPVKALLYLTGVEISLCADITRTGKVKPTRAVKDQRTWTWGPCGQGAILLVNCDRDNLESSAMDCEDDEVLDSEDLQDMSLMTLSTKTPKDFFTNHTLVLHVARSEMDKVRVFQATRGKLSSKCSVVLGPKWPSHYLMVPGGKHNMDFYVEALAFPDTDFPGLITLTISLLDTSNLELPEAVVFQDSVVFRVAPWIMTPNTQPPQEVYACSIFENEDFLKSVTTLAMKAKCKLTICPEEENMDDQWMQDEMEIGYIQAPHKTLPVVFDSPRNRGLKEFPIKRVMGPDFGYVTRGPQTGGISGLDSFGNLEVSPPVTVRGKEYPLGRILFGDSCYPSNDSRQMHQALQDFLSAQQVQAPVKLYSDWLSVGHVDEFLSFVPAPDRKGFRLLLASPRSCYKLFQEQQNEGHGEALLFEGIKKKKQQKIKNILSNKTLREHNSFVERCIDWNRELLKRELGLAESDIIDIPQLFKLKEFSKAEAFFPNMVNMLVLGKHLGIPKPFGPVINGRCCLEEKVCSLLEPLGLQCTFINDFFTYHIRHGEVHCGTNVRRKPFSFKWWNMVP
Outline: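 PAD4 (20 nM, 2× working solution) was preincubated with compound for 15 min at RT in 100 mM HEPES pH 8.0, 2 mM CaCl2, 50 mM NaCl, 0.1 mM TCEP, BSA at 1.25% DMSO. BAEE (600 μM, 2× mix) reacted 60 min, then OPA/DTT/EDTA detection for 120 min. IC50 came from a 4-parameter fit, normalized to 50 μM reference (100%) and DMSO (0%).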

| SMILES | IC50 ([1]; Mus musculus, 4T1, 4 h) [nM] | IC50 [2] [nM] | IC50 [1] [nM] | relative potency of separated isomers in the PAD4 biochemical assay [2] | IC50 ([1]; Mus musculus) [nM] |
| --- | --- | --- | --- | --- | --- |
| CCC1CN(CCCO)c2cccc3cc(-c4nc5cc(C(=O)N6C[C@H]7CC[C@@H]6[C@@H]7N)cc(OC)c5n4C)n1c23 (single isomer, unassigned) [Example 86] | – | > 5000 | > 5000 | – | – |
| CCC1CN(CCCO)c2cccc3cc(-c4nc5cc(C(=O)N6C[C@H](N)C[C@@H](F)C6)cc(OC)c5n4C)n1c23 (single isomer, unassigned) [Example 82] | ≤ 100 | ≤ 100 | – | more potent than Example 81 | – |
| CCC1CN(CCCO)c2cccc3cc(-c4nc5cc(C(=O)N6C[C@H](N)C[C@@H](F)C6)cc(F)c5n4C)n1c23 (stereo partly drawn) [Example 75, ((3R,5R)-3-amino-5-fluoropiperidin-1-yl)(2-(3-ethyl-1-(3-hydroxypropyl)-2,3-dihydro-1H-pyrrolo[1,2,3-de]quinoxalin-5-yl)-7-fluoro-1-methyl-1H-benzo[d]imidazol-5-yl)methanone] | 100 to 500 | 100 to 500 | – | – | – |
| CCC1CN(CCCO)c2cccc3cc(-c4nc5cc(C(=O)N6C[C@H]7CC[C@@H]6[C@@H]7N)cc(F)c5n4CC)n1c23 (stereo partly drawn) [Example 96, ((1R,4R,7R)-7-amino-2-azabicyclo[2.2.1]heptan-2-yl)(1-ethyl-2-(3-ethyl-1-(3-hydroxypropyl)-2,3-dihydro-1H-pyrrolo[1,2,3-de]quinoxalin-5-yl)-7-fluoro-1H-benzo[d]imidazol-5-yl)methanone] | – | 100 to 500 | – | – | 100 to 500 |

Further lines, with some results ahead:

| IC50 ([1]; Mus musculus, 4T1, 4 h) [nM] | IC50 [2] [nM] | IC50 [1] [nM] | relative potency of separated isomers in the PAD4 biochemical assay [2] | SMILES | IC50 ([1]; Mus musculus) [nM] |
| --- | --- | --- | --- | --- | --- |
| ≤ 100 | 100 to 500 | – | – | C#CCn1c(-c2cc3cccc4c3n2C(CC)CN4CCCO)nc2cc(C(=O)N3C[C@H](N)C[C@@H](F)C3)cc(OC)c21 (stereo partly drawn) [Example 95, ((3R,5R)-3-amino-5-fluoropiperidin-1-yl)(2-(3-ethyl-1-(3-hydroxypropyl)-2,3-dihydro-1H-pyrrolo[1,2,3-de]quinoxalin-5-yl)-7-methoxy-1-(prop-2-yn-1-yl)-1H-benzo[d]imidazol-5-yl)methanone] | – |
| – | 100 to 500 | ≤ 100 | more potent than Example 86 | CCC1CN(CCCO)c2cccc3cc(-c4nc5cc(C(=O)N6C[C@H]7CC[C@@H]6[C@@H]7N)cc(OC)c5n4C)n1c23 (single isomer, unassigned) [Example 87] | – |
